This note sets out measurements from PubChem BioAssay (NCI).

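The compound was tested at five concentrations on cells cultured in 96-well plates, with a 48-hour exposure period. GI50 is the concentration that inhibits growth by half. Definition used: TGI = concentration required for complete inhibition of growth.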

Test in all cases: NCI anticancer screen, dose series, 48 h
Experiment [1] relates to BT-549 breast.
Experiment [2] relates to EKVX NSCLC.
Experiment [3] has as its system HCC-2998 colon.
For experiment [4], the system named is K-562 leukemia.
In experiment [5] the test system is LOX IMVI melanoma.
Experiment [6] concerns MCF7 breast.
Experiment [7] has as its system MDA-MB-231 breast.
Experiment [8] deals with NCI-H23 lung.
Experiment [9] deals with SK-OV-3 ovarian.
In experiment [10] the test system is T-47D breast.

As for `N#Cc1c(Br)n(C2OC(CO)C(O)C2O)c2ncnc(N)c12` (centres undefined), the GI50 in experiment [1] is 1.58 µM; in [2], 4.62 µM; in experiment [3], 2.15 µM; in experiment [4], 1.07 µM; in experiment [5], 1.13 µM; in experiment [6] it was 0.631 µM. Besides, the GI50 in [7] was 3.82 µM; in [8] it was 3.63 µM; in [9], 4.29 µM; in experiment [10] it was 0.498 µM. Also, the TGI in [1] was 15 µM; in experiment [2] it was 74.7 µM; in experiment [3], 26.3 µM; in [4], more than 47.4 µM; in experiment [5], 16.4 µM; in experiment [6], 4.01 µM. For the same compound, the TGI was more than 79.9 µM in [7], 41.1 µM in experiment [8], more than 45.4 µM in experiment [9] and 21 µM in [10].
Consider `ON(Cc1ccccc1)C(=S)c1ccccc1`, for which the TGI in experiment [1] is more than 100 µM; in experiment [2], more than 100 µM; in experiment [3] it was 98.1 µM; in [4] it was more than 100 µM; in experiment [5], more than 46.9 µM; in experiment [6] it was more than 100 µM. The TGI is more than 100 µM in [7], 47.1 µM in [8], more than 100 µM in experiment [9] and more than 100 µM in experiment [10].
For the compound `O=C1C2=C(c3ccccc31)C(c1ccccc1)N1C(=O)CSC1=N2` (centres undefined), the TGI in experiment [1] is 66.5 µM; in [2] it was more than 100 µM; in experiment [3] it was more than 100 µM; in [4], more than 100 µM; in [5] it was more than 100 µM; in experiment [6] it was more than 100 µM. Further, the TGI was more than 100 µM in experiment [7], more than 100 µM in experiment [8], more than 100 µM in experiment [9] and 77.6 µM in experiment [10].
For `Clc1ccc(-c2nnc(-c3cccc4ccccc34)o2)cc1Cl`, the TGI in [1], in experiment [2], in experiment [3], in experiment [4], in experiment [5] and in experiment [6] was more than 100 µM throughout. The TGI in experiment [7], in [8], in experiment [9] and in experiment [10] was more than 100 µM each time.
For `Brc1ccc2[nH]cc(-c3nc(-c4c[nH]c5ncccc45)cs3)c2c1`, the GI50 in experiment [1] is 6.07 µM; in experiment [2] it was 2.13 µM; in experiment [3], 3.59 µM; in [4], 2.71 µM; in experiment [5], 2.46 µM; in experiment [6], 2.57 µM. The GI50 is 1.59 µM in experiment [7], 3.55 µM in experiment [8], 5.71 µM in experiment [9] and 4.97 µM in experiment [10]. Also, the TGI in experiment [1] is 18.9 µM; in [2] it was 18.6 µM; in [3], 15.7 µM; in experiment [4] it was more than 100 µM; in [5] it was 11 µM; in experiment [6] it was 13.7 µM. Further, the TGI in experiment [7] was 5.99 µM; in [8], 18.7 µM; in experiment [9], 20.4 µM; in [10] it was 20.3 µM.
On to `COc1cccc(-c2nn(-c3ccccc3)cc2-c2ccnc(NCCNC(=O)Nc3cccc(C(F)(F)F)c3)c2)c1`, for which the GI50 was 3.4 µM in experiment [1]; 2 µM in [2]; 1.72 µM in experiment [3]; 2.13 µM in experiment [4]; 1.64 µM in experiment [5]; 2.07 µM in experiment [6]. Also, the GI50 was 1.97 µM in experiment [7], 1.86 µM in experiment [8], 3.5 µM in [9] and 2.23 µM in experiment [10]. The TGI in experiment [1] was determined as 13.1 µM; in experiment [2] it was 6.65 µM; in experiment [3], 3.26 µM; in experiment [4], 4.83 µM; in experiment [5], 2.99 µM; in [6], 4.89 µM. Moreover, the TGI in experiment [7] was 4.58 µM; in experiment [8] it was 4.15 µM; in [9], 12.2 µM; in [10], 6.01 µM.
Regarding `Nc1nc(N)c(C=Nc2ccc(Br)cc2)c(Nc2ccc(Br)cc2)n1`, the GI50 in experiment [1] was 12.9 µM; in experiment [2] it was 10.5 µM; in [3], 3.89 µM; in [4], 2.91 µM; in experiment [5] it was 3.01 µM; in [6], 2.57 µM. Also, the GI50 in experiment [7] is 7.36 µM; in experiment [8] it was 10 µM; in [9] it was 15.1 µM; in experiment [10], 4.22 µM. The TGI in [1] amounted to 25.5 µM; in [2], 24.1 µM; in experiment [3], 14 µM; in [4], 8.68 µM; in experiment [5], 16.4 µM; in experiment [6], 15.1 µM. The TGI in [7] is 28.3 µM; in [8], 27.3 µM; in [9], 28.4 µM; in experiment [10], 18.4 µM.
For `CN(Cc1cccc(F)c1)c1ccc(CO)c(Cl)c1`, the GI50 in [1] is 17.9 µM; in [2], 27.2 µM; in experiment [3], 13.2 µM; in experiment [4], 8.99 µM; in [5], 23.5 µM; in experiment [6] it was 1.03 µM. In addition, the GI50 in experiment [7] is 24.7 µM; in experiment [8], 13.3 µM; in experiment [9], 11.4 µM; in experiment [10] it was 0.548 µM. Besides, the TGI in experiment [1] is 60.9 µM; in experiment [2] it was more than 100 µM; in experiment [3] it was 42.5 µM; in experiment [4], more than 100 µM; in [5], 75.9 µM; in experiment [6] it was 26.3 µM. The TGI is more than 100 µM in experiment [7], more than 92.6 µM in experiment [8], 50.4 µM in experiment [9] and 3.92 µM in experiment [10].
For `CCOC(=O)c1c(C)n(Cc2ccccc2)c2c1cc(O)c1[nH]c(Cc3ccccc3)nc12`, the GI50 in [1] was 2.39 µM; in experiment [2], 25.5 µM; in experiment [4] it was 0.679 µM; in [5], 13.8 µM; in experiment [6], 7.4 µM; in experiment [7], 20.1 µM. The GI50 in [8] is 9.19 µM; in [9], 23.2 µM; in [10], 9.74 µM. Also, the TGI in experiment [1] is 28.8 µM; in experiment [2], more than 79.5 µM; in [3] it was 2.04 µM; in experiment [4], more than 40 µM; in experiment [5], more than 67.8 µM; in experiment [6], more than 53.1 µM. Moreover, the TGI in experiment [7] is more than 85.9 µM; in experiment [8] it was more than 56 µM; in experiment [9], more than 100 µM; in experiment [10], more than 36.6 µM.
On to `Oc1ccc(-c2nc3ccc4[nH]ncc4c3c3c2CCCC3)c(F)c1`, for which the GI50 in [1] is 1.73 µM; in experiment [2], 3.16 µM; in experiment [3] it was 4.25 µM; in experiment [4], 2.71 µM; in experiment [5], 2.9 µM; in [6] it was 4.91 µM. Further, the GI50 is 2.79 µM in [7], 3.15 µM in experiment [8], 0.765 µM in experiment [9] and 1.57 µM in experiment [10]. In addition, the TGI stood at 8.87 µM in experiment [1]; 13.5 µM in experiment [2]; 14.5 µM in [3]; 21 µM in [4]; 12.4 µM in [5]; 20.7 µM in experiment [6]. Besides, the TGI in [7] amounted to 10.5 µM; in [8], 14 µM; in experiment [9], 2.75 µM; in experiment [10] it was 6.61 µM.
Turning to `CC(C)N1CCN(Cc2ccc3c(NNC(=O)c4ccccc4)nc4cc(F)ccc4n23)CC1`, the GI50 in experiment [1] is 0.629 µM; in [2], 0.172 µM; in experiment [3], 0.699 µM; in [4], 0.379 µM; in experiment [5], 0.198 µM; in [6], 0.341 µM. Also, the GI50 in experiment [7] is 0.497 µM; in experiment [8], 0.93 µM; in [9], 0.338 µM; in [10], 0.419 µM. Further, the TGI in experiment [1] turned out to be 12.1 µM; in [2] it was 6.79 µM; in experiment [3], 6.45 µM; in experiment [4], 3.87 µM; in experiment [5] it was 1.54 µM; in experiment [6], 1.48 µM. Further, the TGI was determined as 2.48 µM in experiment [7], 8.94 µM in [8], 15.3 µM in experiment [9] and 11.7 µM in [10].
